Columns and labels:
Huh7 D12 = experiment: Antiproliferative assay, Huh7 D12; assay type: cell-based, human; settings: for IC50: Homo sapiens, Huh-7D12, 48 h incubation, average of three assays, standard error ± 0.5 μM; for Selectivity Index (SI) Huh7 D12: SI = IC50 fibroblasts/IC50 on Huh7 D12
Method: (§1) The potential antiproliferative activity of these novel 3-(N-phenylmethyliden)amino-4-imino-3,5-dihydro-4H-chromeno[2,3-d]pyrimidine 10(a-i) and 10-(N-phenylmethyliden)amino-11-imino-11H-naphto[1′,2′:5,6]pyrano[2,3-d]pyrimidine 10(j-l) was evaluated in a panel of eight tumoral cell lines and in diploid skin fibroblasts used as normal cell lines for control. For these antitumor assays, chosen cell lines represent diverse types of human cancer, which are, respectively, human hepatocellular carcinoma (Huh7 D12), human colon adenocarcinoma (Caco2), human breast adenocarcinoma (MDA-MB231), MDA-MB468 for human breast carcinoma which correspond to the Triple Negative Breast Cancer (TNBC), human colon carcinoma (HCT116), PC3 as cell line initiated from bone metastasis of grade IV prostatic adenocarcinoma from a person, MCF7 as breast cancer line isolated from a person and PANC1, as human pancreatic cancer cell line. The potential antiproliferative activity was preliminarily evaluated in vitro at a 25 μM single dose.
(§2) The IC50 was calculated from the full dose-response curve and used as a parameter for the antiproliferative activity of the new compounds.
(§3) Skin diploid fibroblastic cells were provided by BIOPREDIC International Company (Rennes, France). Huh-7D12 (Ref ECACC: 01042712), Caco2 (Ref ECACC: 86010202), MDA-MB-231 (Ref ECACC: 92020424), MDA-MB-468, HCT-116 (Ref ECACC: 91091005), PC3 (Ref ECACC: 90112714), and MCF7 cell lines were obtained from the ECACC collection. PANC1 cell lines, a generous gift of LBAI Inserm 1227 (Brest, France). Cells were grown according to ECACC recommendations in DMEM for Huh-D12, MDA-MB-231, MDA-MB-468 and fibroblast, in EMEM for Caco2, in McCoy’s for HCT-116 and RPMI for PC3 at 37 °C and 5% CO2. All culture media with 10% of FBS, 1% of penicillin-streptomycin and 2 mM glutamine.
(§4) Chemicals were solubilized in DMSO at a concentration of 10 mM (stock solution) and diluted in a culture medium to the desired final concentrations. […] The toxicity test of the chemicals on these cells was as follows: 2 × 10^3 cells for HCT-116 cells or 4 × 10^3 for the other cells were seeded in 96-multi-well plates in triplicate and left for 24 h for attachment, spreading and growing. Then, cells were exposed for 48 h to increasing concentrations of chemicals, ranging from 0.1 μM to 25 μM, in a final volume of 120 μL of culture medium. After 48 h of treatment, cells were washed in PBS and fixed in a cooled 90% ethanol/5% acetic acid solution for 20 min. The nuclei were stained with Hoechst 3342 (B2261 Merck Sigma-Aldrich) and counted. Image acquisition and analysis were performed using automated imaging analysis with a Cellomics Arrayscan VTI/HCS Reader (Thermo/Scientific, Waltham, MA, USA). The survival percentages were calculated as the percentage of cell number after chemical treatment over cell number after DMSO treatment. The IC50 was graphically determined.

Caco2 = experiment: Antiproliferative assay, Caco2; assay type: cell-based, human; settings: Homo sapiens, Caco-2; 48 h incubation; average of three assays, standard error ± 0.5 μM
Method: as §1, §2, §3, §4

MDA MB231 = experiment: Antiproliferative assay, MDA MB231; assay type: cell-based, human; settings: for IC50: Homo sapiens, MDA-MB-231, 48 h incubation, average of three assays, standard error ± 0.5 μM; for Selectivity Index (SI) MDA MB231: SI = IC50 fibroblasts/IC50 on MDA MB231
Method: as §1, §2, §3, §4

MDA MB468 = experiment: Antiproliferative assay, MDA MB468; assay type: cell-based, human; settings: for IC50: Homo sapiens, MDA-MB-468, 48 h incubation, average of three assays, standard error ± 0.5 μM; for Selectivity Index (SI) MDA MB468: SI = IC50 fibroblasts/IC50 on MDA MB468
Method: as §1, §2, §3, §4

HCT 116 = experiment: Antiproliferative assay, HCT 116; assay type: cell-based, human; settings: for IC50: Homo sapiens, HCT-116, 48 h incubation, average of three assays, standard error ± 0.5 μM; for Selectivity Index (SI) HCT 116: SI = IC50 fibroblasts/IC50 on HCT 116
Method: as §1, §2, §3, §4

PC3 = experiment: Antiproliferative assay, PC3; assay type: cell-based, human; settings: for IC50: Homo sapiens, PC-3, 48 h incubation, average of three assays, standard error ± 0.5 μM; for Selectivity Index (SI) PC3: SI = IC50 fibroblasts/IC50 on PC3
Method: as §1, §2, §3, §4

MCF7 = experiment: Antiproliferative assay, MCF7; assay type: cell-based, human; settings: for IC50: Homo sapiens, MCF7, 48 h incubation, average of three assays, standard error ± 0.5 μM; for Selectivity Index (SI) MCF7: SI = IC50 fibroblasts/IC50 on MCF7
Method: as §1, §2, §3, §4

PANC1 = experiment: Antiproliferative assay, PANC1; assay type: cell-based, human; settings: for IC50: Homo sapiens, PANC-1, 48 h incubation, average of three assays, standard error ± 0.5 μM
Method: as §1, §2, §3, §4

Fibroblasts = experiment: Antiproliferative assay, diploid skin fibroblasts (normal cells); assay type: cell-based; settings: for IC50: Fibroblast, 48 h incubation, average of three assays, standard error ± 0.5 μM
Method: as §1, §2, §3, §4

[1] = Antiproliferative assay, Caco2; assay type: cell-based, human; settings: human, Caco-2; SI = IC50 fibroblasts/IC50 on Caco2; read-out: Selectivity Index (SI) Caco2
Method: as §1, §2, §3, §4

tumor cell lines = experiment: Antiproliferative assay, panel of tumoral cell lines; assay type: cell-based; settings: Homo sapiens, 48 h, summary over tumoral cell lines of Table 3, 48 h; read-out: IC50 on tumor cell lines (span over the panel)
Method: as §1, §2, §3, §4

[2] = test system: zebrafish Danio rerio embryos; experiment: Zebrafish embryo toxicity assay (Zebratox, FET)
Method: Fertilized eggs at 24–48 h post-fertilization (hpf) were selected and transferred to a 96-well plate (1 embryo/well). […] DMSO (0.6%) was used as vehicle control for the test compounds. The exposure duration continued up to 72 hpf because it is the endpoint of embryonic development [41]. The dead embryos were eliminated, and the fertilized eggs were imaged at 0, 24, 48 and 72 hpf.
Eggs were collected 2 h post-fertilization (hpf) and kept in glass Petri dishes containing water for subsequent examination under a binocular microscope to confirm fertilization. […] Chemical treatments were performed by adding DMSO alone (negative control), or test molecule. These experiments were performed in four technical replicates.
The experiments were performed using a Zeiss inverted fluorescent microscope (Observer Z1). The zebrafish toxicological test (Zebratox) was realized as follows: the 24 h post-fertilization embryos were arrayed by hand with one embryo per well in black-walled 96-well microplates for fluorescence assays (Perkin Elmer, Waltham, MA, USA). The embryos were treated before hatching from 0 to 72 h post-fertilization. The 20 mM DMSO stock chemicals were diluted in fish water and added to the wells at final concentrations from 0.0 2µM to 5 μM. The negative control (0.25% DMSO) was added to each replicate plate. The experiments were realized in triplicate in three independent plates. […] The zebrafish fertilized eggs were provided by the ImPACcell-Biosit Zebrafish facilities (Rennes, France).

SMILES | IC50 (Huh7 D12) | IC50 (Caco2) | IC50 (MDA MB231) | IC50 (MDA MB468) | IC50 (HCT 116) | IC50 (PC3) | IC50 (MCF7) | IC50 (PANC1) | IC50 (Fibroblasts) | Selectivity Index (SI) Huh7 D12 (Huh7 D12) | selectivity ratio at 48 h [1] | Selectivity Index (SI) MDA MB231 (MDA MB231) | Selectivity Index (SI) MDA MB468 (MDA MB468) | Selectivity Index (SI) HCT 116 (HCT 116) | Selectivity Index (SI) PC3 (PC3) | Selectivity Index (SI) MCF7 (MCF7) | effect on fibroblasts (healthy skin cell), in words (Fibroblasts) | IC50 (tumor cell lines) | further results
CCN(CC)c1ccc2c(c1)Oc1ncn(/N=C/c3ccc(N(C)C)cc3)c(=N)c1C2 [10a] | > 25 µM | > 25 µM | > 25 µM | > 25 µM | > 25 µM | > 25 µM | > 25 µM | > 25 µM | > 25 µM | – | – | – | – | – | – | – | – | – | –
CCN(CC)c1ccc2c(c1)Oc1ncn(/N=C/c3ccccc3O)c(=N)c1C2 [10b] | > 25 µM | > 25 µM | > 25 µM | > 25 µM | > 25 µM | > 25 µM | > 25 µM | > 25 µM | > 25 µM | – | – | – | – | – | – | – | – | – | –
CCN(CC)c1ccc2c(c1)Oc1ncn(/N=C/c3ccccc3)c(=N)c1C2 [10c] | > 25 µM | > 25 µM | > 25 µM | > 25 µM | > 25 µM | > 25 µM | > 25 µM | > 25 µM | > 25 µM | – | – | – | – | – | – | – | – | – | –
CN(C)c1ccc(/C=N/n2cnc3c(c2=N)Cc2ccccc2O3)cc1 [10d, (3E) 3-N-(4-Dimethylaminophenylmethylidene)amino-4-imino-3,5-dihydro-4H-chromeno[2,3-d]pyrimidine] | 11 µM | 10 µM | 11 µM | 11 µM | 11 µM | 11 µM | 11 µM | 17 µM | 14 µM | 1.27 | 1.4 | 1.27 | 1.27 | 1.27 | 1.27 | 1.27 | cytotoxic on fibroblasts | 1 to 25 µM | Selectivity Index (SI) PANC1 (PANC1; SI = IC50 fibroblasts/IC50 on PANC1): 0.82
COc1cccc2c1Oc1ncn(/N=C/c3ccc(N(C)C)cc3)c(=N)c1C2 [10g, (3E) 3-N-(4-Dimethylaminophenylmethylidene)amino-4-imino-9-methoxy-3,5-dihydro-4H-chromeno[2,3-d]pyrimidine] | 6 µM | 10 µM | > 25 µM | 18 µM | 24 µM | 16 µM | 10 µM | – | 11 µM | 1.83 | 1.1 | < 0.44 | 0.61 | 0.46 | 0.69 | 1.1 | cytotoxic on fibroblasts | 1 to 25 µM | –
CN(C)c1ccc(/C=N/n2cnc3c(c2=N)Cc2c(ccc4ccccc24)O3)cc1 [10j, (10E) 10-N-(4-Dimethylaminophenylmethylidene)amino-11-imino-11H-naphto[1′,2′:5,6]pyrano[2,3-d]pyrimidine] | 6 µM | 10 µM | > 25 µM | 18 µM | 24 µM | 16 µM | 10 µM | – | 11 µM | 1.83 | 1.1 | < 0.44 | 0.61 | 0.46 | 0.69 | 1.1 | cytotoxic on fibroblasts | 1 to 25 µM | –
COc1cccc2c1C(=O)c1c(O)c3c(c(O)c1C2=O)C[C@@](O)(C(=O)CO)C[C@@H]3O[C@H]1C[C@H](N)[C@H](O)[C@H](C)O1 [Doxorubicin, reference compound] | 0.06 µM | 0.03 µM | 0.02 µM | 0.03 µM | 0.07 µM | 0.07 µM | 0.09 µM | – | 0.01 µM | 0.16 | 0.33 | 0.50 | 0.33 | 0.14 | 0.14 | 0.11 | – | – | –
C#Cc1cccc(Nc2ncnc3cc(OCCOC)c(OCCOC)cc23)c1 [erlotinib, reference compound] | – | – | – | – | – | – | – | – | – | – | – | – | – | – | – | – | – | – | toxicity on zebrafish embryos ([2]; 1 μM dose, 72 hpf): no toxicity; hatching of the embryos ([2]; treatment for 48 and 72 hpf): complete hatching
